Activity calls are given as the source filed them. The calls are words filed in the database; no cut-off is given here.
How the values were obtained:
[1] = test system: Hepatitis B virus; assay: Antiviral activity against HBV infected in human HepG2-NTCP cells assessed as reduction in HBeAg secretion incubated for 24 hrs followed replacement with fresh medium and measured at day 5 post infection by ELISA; format: functional, organism-based
[2] = target: T1, Hepatic sodium/bile acid cotransporter (Homo sapiens, UniProt Q14973); assay: Inhibition of human NTCP-mediated [3H]-TCA uptake expressed in human HepG2 cells in presence of 50 % FBS; format: cell-based
T1 sequence (Q14973 whole entry): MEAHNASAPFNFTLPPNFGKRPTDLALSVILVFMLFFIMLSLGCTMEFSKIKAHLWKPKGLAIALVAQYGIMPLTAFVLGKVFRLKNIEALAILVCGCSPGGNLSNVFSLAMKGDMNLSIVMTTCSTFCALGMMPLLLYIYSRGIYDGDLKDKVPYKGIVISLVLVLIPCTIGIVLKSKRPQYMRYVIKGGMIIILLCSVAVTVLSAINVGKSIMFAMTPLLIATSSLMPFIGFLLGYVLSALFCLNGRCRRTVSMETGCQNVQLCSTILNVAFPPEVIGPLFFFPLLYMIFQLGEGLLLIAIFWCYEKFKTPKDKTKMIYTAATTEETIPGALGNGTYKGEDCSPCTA

[3] = target: T1, Hepatic sodium/bile acid cotransporter; assay: Inhibition of human NTCP-mediated [3H]-TCA uptake expressed in human HepG2 cells in presence of 20 % FBS; format: cell-based
[4] = target: T1, Hepatic sodium/bile acid cotransporter; assay: Inhibition of human NTCP-mediated [3H]-TCA uptake expressed in human HepG2 cells pretreated for 2 hrs followed by [3H]-TCA addition in absence of FBS; format: cell-based
[5] = target: T1, Hepatic sodium/bile acid cotransporter; assay: Inhibition of human NTCP-mediated [3H]-Estrone sulfate uptake expressed in human HepG2 cells at 2 uM; format: cell-based; settings: hepg2, 2 µM
[6] = test system: Hepatitis B virus; assay: Antiviral activity against HBV infected in human HepG2-NTCP cells assessed as reduction in intracellular HBV RNA level at 1 uM by qPCR analysis; format: functional, organism-based
[7] = test system: Hepatitis B virus; assay: Antiviral activity against HBV infected in human HepG2-NTCP cells assessed as reduction in HBeAg secretion at 1 uM pre-infected with virus followed by compound addition by ELISA; format: functional, organism-based
[8] = target: T2, Solute carrier organic anion transporter family member 1B1 (Homo sapiens, UniProt Q9Y6L6); assay: Inhibition of human OATP1B1-mediated [3H]-Estrone sulfate uptake expressed in human HepG2 cells at 2 uM; format: cell-based; settings: hepg2, 2 µM
T2 sequence (Q9Y6L6 whole entry): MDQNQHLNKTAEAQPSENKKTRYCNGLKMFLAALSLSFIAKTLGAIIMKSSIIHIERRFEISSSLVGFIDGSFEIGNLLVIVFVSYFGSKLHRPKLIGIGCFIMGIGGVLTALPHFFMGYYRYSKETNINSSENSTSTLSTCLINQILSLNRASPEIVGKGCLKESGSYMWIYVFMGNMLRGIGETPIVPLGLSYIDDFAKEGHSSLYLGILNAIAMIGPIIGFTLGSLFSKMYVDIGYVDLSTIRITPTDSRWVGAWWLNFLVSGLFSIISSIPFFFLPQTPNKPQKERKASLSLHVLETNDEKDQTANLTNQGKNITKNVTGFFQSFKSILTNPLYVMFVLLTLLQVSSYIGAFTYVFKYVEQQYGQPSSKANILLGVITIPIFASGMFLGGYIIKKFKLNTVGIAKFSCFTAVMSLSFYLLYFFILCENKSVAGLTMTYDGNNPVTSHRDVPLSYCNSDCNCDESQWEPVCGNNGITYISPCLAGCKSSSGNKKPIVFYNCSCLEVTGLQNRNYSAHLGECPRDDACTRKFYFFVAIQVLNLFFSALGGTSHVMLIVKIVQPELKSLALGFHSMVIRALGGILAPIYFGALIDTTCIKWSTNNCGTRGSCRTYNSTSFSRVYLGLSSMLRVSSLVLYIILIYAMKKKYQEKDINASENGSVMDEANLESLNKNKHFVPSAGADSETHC

[9] = test system: Hepatitis B virus; assay: Antiviral activity against HBV infected in human HepG2-NTCP cells assessed as reduction in intracellular accumulation of HBsAg at 1 uM by immunostaining based fluorescence microscopic analysis; format: functional, organism-based
[10] = test system: Hepatitis delta virus; assay: Antiviral activity against HDV infected in human HepG2-NTCP cells assessed as reduction in intranuclear accumulation of HDV delta antigen at 5 uM incubated for 24 hrs followed by replacement with fresh medium and measured at day 5 post infection by DAPI staining based confocal microscopic analysis (reference value: 12.1 %); format: functional; design: scale not given: the % may be the effect or the level left
[11] = target: T1, Hepatic sodium/bile acid cotransporter; assay: Inhibition of FITC-labeled HBV Pre-S1 polypeptide binding to human NTCP expressed in HepG2 cells after 2 to 3 hrs by confocal microscopic analysis; format: cell-based; settings: time 2-3 hrs
[12] = test system: HepG2; assay: Effect on NTCP surface expression in human HepG2-NTCP cells assessed as reduction in NTCP surface expression level after 2 hrs by immunostaining based assay; format: functional, cell-based
[13] = test system: Hepatitis B virus; assay: Antiviral activity against HBV infected in human HepG2-NTCP cells assessed as reduction in HBeAg secretion at 111 to 1000 nM incubated for 24 hrs followed by replacement with fresh medium and measured at day 5 post infection by ELISA; format: functional, organism-based; settings: dose 111-1000 nM
[14] = test system: Hepatitis B virus; assay: Antiviral activity against HBV infected in human HepG2-NTCP cells assessed as reduction in HBeAg secretion at 1 uM preincubated with compound followed by viral infection by ELISA; format: functional, organism-based
[15] = test system: Hepatitis B virus; assay: Antiviral activity against HBV infected in human HepG2-NTCP cells assessed as reduction in HBeAg secretion at 1 uM compound added along with viral infection by ELISA; format: functional, organism-based
[16] = test system: Hepatocyte; assay: Cytotoxicity against primary tupaia hepatocytes expressing NTCP assessed as reduction in cell viability at 100 uM after 48 hrs by Cell-Titer Glo assay; format: cell-based; settings: scandentia
[17] = target: T3, Ileal sodium/bile acid cotransporter (Homo sapiens, UniProt Q12908); assay: Inhibition of human ASBT-mediated [3H]-TCA uptake expressed in human HepG2 cells at 2 uM; format: cell-based; settings: hepg2, 2 µM
T3 sequence (Q12908 whole entry): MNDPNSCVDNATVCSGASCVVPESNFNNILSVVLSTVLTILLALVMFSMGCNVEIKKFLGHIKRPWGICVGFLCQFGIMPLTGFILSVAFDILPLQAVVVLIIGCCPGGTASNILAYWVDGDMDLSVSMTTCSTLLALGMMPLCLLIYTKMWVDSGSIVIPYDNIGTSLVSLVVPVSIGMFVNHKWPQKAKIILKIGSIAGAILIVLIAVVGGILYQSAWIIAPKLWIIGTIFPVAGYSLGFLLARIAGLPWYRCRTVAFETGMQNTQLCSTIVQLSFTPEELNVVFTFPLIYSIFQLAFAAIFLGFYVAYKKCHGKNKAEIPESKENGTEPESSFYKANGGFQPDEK

[18] = test system: HepG2; assay: Cytotoxicity against human HepG2 cells expressing NTCP assessed as reduction in cell viability at 10 uM after 48 hrs by alamar blue assay; format: cell-based; settings: hepg2, 48 h
[19] = target: T1, Hepatic sodium/bile acid cotransporter; assay: Inhibition of human NTCP-mediated [3H]-TCA uptake expressed in human HepG2 cells at 2 uM; format: cell-based; settings: hepg2, 2 µM
[20] = test system: Hepatitis B virus; assay: Antiviral activity against HBV infected in human HepG2-NTCP cells assessed as reduction in intracellular accumulation of HBcAg at 1 uM by immunostaining based fluorescence microscopic analysis; format: functional, organism-based
[21] = target: T1, Hepatic sodium/bile acid cotransporter; assay: Inhibition of human NTCP-mediated NQL-065 uptake expressed in human HepG2 cells incubated for 30 mins; format: cell-based; settings: hepg2, 0.5 h
[22] = target: T1, Hepatic sodium/bile acid cotransporter; assay: Inhibition of human NTCP-mediated NQL-064 uptake expressed in human HepG2 cells incubated for 30 mins; format: cell-based; settings: hepg2, 0.5 h
[23] = test system: HepG2; assay: Inhibition of tree shrew NTCP-mediated [3H]-TCA uptake expressed in human HepG2 cells; format: cell-based; settings: Scandentia
[24] = target: T4, Hepatic sodium/bile acid cotransporter (Mus musculus, UniProt O08705); assay: Inhibition of mouse NTCP-mediated [3H]-TCA uptake expressed in human HepG2 cells; format: cell-based
T4 sequence (O08705 whole entry): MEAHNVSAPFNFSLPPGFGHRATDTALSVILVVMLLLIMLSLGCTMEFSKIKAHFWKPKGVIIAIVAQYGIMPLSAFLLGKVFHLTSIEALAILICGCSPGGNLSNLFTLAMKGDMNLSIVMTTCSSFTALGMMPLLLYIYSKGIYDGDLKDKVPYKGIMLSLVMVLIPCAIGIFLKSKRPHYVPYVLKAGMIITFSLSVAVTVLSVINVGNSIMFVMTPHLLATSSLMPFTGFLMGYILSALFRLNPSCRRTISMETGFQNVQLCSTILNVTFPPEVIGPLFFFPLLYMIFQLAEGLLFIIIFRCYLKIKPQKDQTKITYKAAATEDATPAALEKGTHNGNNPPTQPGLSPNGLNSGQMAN

[25] = test system: HepG2; assay: Inhibition of monkey NTCP-mediated [3H]-TCA uptake expressed in human HepG2 cells; format: cell-based; settings: Macaca mulatta
[26] = target: T1, Hepatic sodium/bile acid cotransporter; assay: Inhibition of human NTCP-mediated [3H]-TCA uptake expressed in human HepG2 cells; format: cell-based; settings: human, hepg2
[27] = test system: Hepatitis B virus; assay: Antiviral activity against HBV infected in human HepG2-NTCP cells assessed as reduction in HBeAg secretion preincubated for 2 hrs followed by viral infection by ELISA; format: functional, organism-based

Row | SMILES | IC50 [1] [nM] | inhibition (INH) [5] | Activity [6] | Activity [7] | inhibition (INH) [8] | Activity [9] | Activity [10] [%] | inhibition (INH) [11] | Activity [12] | Activity [13] | Activity [14] | Activity [15] | Activity [16] | inhibition (INH) [17] | Activity [18] | inhibition (INH) [19] | Activity [20] | further results
1 | C[C@@H]1CCC(=O)NC(C(=O)O)CNC(=O)CC[C@@H](C)[C@H]2CC[C@H]3[C@@H]4[C@@H](O)C[C@@H]5C[C@@H](CC[C@]5(C)[C@H]4CC[C@]23C)n2cc(nn2)CO[C@@H]2CC[C@@]3(C)[C@@H](C2)C[C@H](O)[C@@H]2[C@@H]3CC[C@]3(C)[C@@H]1CC[C@@H]23 (stereo not given in full) | 93 | – | – | – | – | – | – | – | – | – | – | – | – | – | – | – | – | IC50 [2]: 167 nM; IC50 [3]: 109 nM; IC50 [4]: 17.9 nM
2 | C[C@@H]1CCC(=O)NCCNC(=O)CC[C@@H](C)[C@H]2CC[C@H]3[C@@H]4[C@@H](O)C[C@@H]5C[C@@H](CC[C@]5(C)[C@H]4CC[C@]23C)NC(=O)CCCC(=O)N[C@@H]2CC[C@@]3(C)[C@@H](C2)C[C@H](O)[C@@H]2[C@@H]3CC[C@]3(C)[C@@H]1CC[C@@H]23 | 100 | Active | Active | inactive | Not Active | Active | 2.9 | Active | inactive | Active | Active | Active | Non-Toxic | Not Active | Non-Toxic | Active | Active | –
3 | C[C@H](CCCN(CC[C@@H](C)[C@H]1CC[C@H]2[C@@H]3[C@@H](O)C[C@@H]4C[C@H](O)CC[C@]4(C)[C@H]3CC[C@]12C)CCS(=O)(=O)O)[C@H]1CC[C@H]2[C@@H]3[C@@H](O)C[C@@H]4C[C@H](O)CC[C@]4(C)[C@H]3CC[C@]12C | 110 | Active | Active | inactive | Not Active | Active | 4.6 | Active | inactive | Active | Active | Active | Non-Toxic | Not Active | Non-Toxic | Active | Active | inhibition (INH) [21]: Active; inhibition (INH) [22]: Active; inhibition [23]: Active; inhibition (INH) [24]: Active; inhibition [25]: Active; inhibition (INH) [26]: Active; Activity [27]: Active
